Patent publication US10030020B2, “Spirocycle compounds and methods of making and using same” (Abide Therapeutics, Inc., priority 2016, dated 2018)

Columns and labels:
[1] = biological target: T1, ABHD6 (Mus musculus (Mouse), UniProt Q8R2Y0); assay: Mouse brain proteomes from inhibitor treated mice (oral gavage, sacrificed 4 h after administration, ABPP analysis), ABHD6; assay type: in vivo, mouse (C57Bl/6J); details: 5 mg/kg oral gavage
In short: (§1)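 Mice (wild-type C57Bl/6J) receive inhibitor by oral gavage, e.g. in PEG400/Ethanol/PBS (7/2/1). Each animal is killed 4 h later. Brain proteomes are prepared and analyzed by ABPP, giving % inhibition at 5 mg/kg.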

[2] = biological target: T1, ABHD6; assay: In vitro competitive activity-based protein profiling (mouse brain membrane fraction or cell lysates), ABHD6 band; assay type: biochemical; details: 1 μM, mouse; read-out: ABHD6 % Inh 1 μM (mouse)
In short: (§2)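 Competitive ABPP: proteome 1.0 mg/mL protein + inhibitor, 30 min, 37° C; FP-Rh probe (stock 50 μM in DMSO) added, 30 min, 37° C; SDS quench, SDS-PAGE, fluorescent band intensity read.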

[3] = biological target: T2, FAAH (Mus musculus (Mouse), UniProt O08914); assay: Mouse brain proteomes from inhibitor treated mice (oral gavage, sacrificed 4 h after administration, ABPP analysis), FAAH; assay type: in vivo, mouse (C57Bl/6J); details: 5 mg/kg oral gavage
In short: as §1

[4] = biological target: T3, MAGL (Mus musculus (Mouse), UniProt O35678); assay: Mouse brain proteomes from inhibitor treated mice (oral gavage, sacrificed 4 h after administration, ABPP analysis); assay type: in vivo, mouse (C57Bl/6J); details: 5 mg/kg oral gavage
In short: as §1

[5] = biological target: T2, FAAH; assay: In vitro competitive activity-based protein profiling (mouse brain membrane fraction or cell lysates), FAAH band; assay type: biochemical; details: 1 μM, mouse; read-out: FAAH % Inh 1 μM (mouse)
In short: as §2

[6] = biological target: T3, MAGL; assay: In vitro competitive activity-based protein profiling (mouse brain membrane fraction or cell lysates), MAGL band; assay type: biochemical; details: 1 μM, mouse; read-out: MAGL % Inh 1 μM (mouse)
Experimental: In Vitro Competitive Activity-Based Protein Profiling.
Proteomes (mouse brain membrane fraction or cell lysates) (50 μL, 1.0 mg/mL total protein concentration) were preincubated with varying concentrations of inhibitors at 37° C. After 30 min, FP—Rh (1.0 μL, 50 μM in DMSO) was added and the mixture was incubated for another 30 min at 37° C. Reactions were quenched with SDS loading buffer (50 μL-4×) and run on SDS-PAGE.

[7] = biological target: MAGL (Homo sapiens (Human), UniProt Q99685); assay: In vitro competitive activity-based protein profiling (human prefrontal cortex or cell membrane fractions; hMAGL expressed in HEK293T cells); assay type: biochemical; details: human
In short: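 Human prefrontal cortex or cell membrane proteomes (1.0-2.0 mg/mL), or lysates of HEK293T cells expressing hMAGL diluted into mock proteome, preincubated with inhibitor 30 min at 37° C. FP-Rh or JW912 probe then added for 30 min at room temperature. Residual labeling resolved by SDS-PAGE.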

T1 sequence (Q8R2Y0 whole entry): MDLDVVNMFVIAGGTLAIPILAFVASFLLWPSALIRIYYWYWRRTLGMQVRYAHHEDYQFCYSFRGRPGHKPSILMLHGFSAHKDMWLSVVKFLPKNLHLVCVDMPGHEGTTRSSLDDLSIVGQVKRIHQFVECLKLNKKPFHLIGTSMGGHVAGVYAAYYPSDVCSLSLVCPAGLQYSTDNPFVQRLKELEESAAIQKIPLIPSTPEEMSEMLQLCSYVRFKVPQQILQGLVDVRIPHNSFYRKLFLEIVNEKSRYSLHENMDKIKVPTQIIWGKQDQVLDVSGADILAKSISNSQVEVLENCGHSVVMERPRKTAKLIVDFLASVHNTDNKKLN
Chain of MAGL (Homo sapiens (Human), UniProt Q99685) (Q99685 whole entry): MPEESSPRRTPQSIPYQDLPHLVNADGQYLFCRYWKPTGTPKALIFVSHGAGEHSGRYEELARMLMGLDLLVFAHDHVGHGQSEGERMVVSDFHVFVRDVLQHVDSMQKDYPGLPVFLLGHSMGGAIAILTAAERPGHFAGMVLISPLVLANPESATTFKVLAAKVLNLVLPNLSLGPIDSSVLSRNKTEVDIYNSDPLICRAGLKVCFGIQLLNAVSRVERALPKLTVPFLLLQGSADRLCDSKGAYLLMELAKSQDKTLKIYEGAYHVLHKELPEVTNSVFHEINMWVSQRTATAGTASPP
T2 sequence (O08914 whole entry): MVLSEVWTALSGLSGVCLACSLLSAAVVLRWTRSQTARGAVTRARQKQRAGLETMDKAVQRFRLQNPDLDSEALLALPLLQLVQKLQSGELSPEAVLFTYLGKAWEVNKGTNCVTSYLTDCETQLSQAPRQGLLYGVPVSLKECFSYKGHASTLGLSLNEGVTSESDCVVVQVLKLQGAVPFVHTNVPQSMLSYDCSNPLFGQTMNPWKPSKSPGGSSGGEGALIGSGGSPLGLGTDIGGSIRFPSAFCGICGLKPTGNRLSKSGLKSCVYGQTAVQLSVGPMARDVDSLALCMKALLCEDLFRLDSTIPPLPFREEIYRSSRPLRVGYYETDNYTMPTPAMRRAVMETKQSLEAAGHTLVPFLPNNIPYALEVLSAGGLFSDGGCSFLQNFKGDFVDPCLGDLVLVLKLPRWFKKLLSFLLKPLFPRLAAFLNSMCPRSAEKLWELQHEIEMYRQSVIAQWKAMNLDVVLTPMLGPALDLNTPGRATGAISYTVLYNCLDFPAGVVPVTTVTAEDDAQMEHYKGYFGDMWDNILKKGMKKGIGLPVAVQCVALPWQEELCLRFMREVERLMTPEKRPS
T3 sequence (O35678 whole entry): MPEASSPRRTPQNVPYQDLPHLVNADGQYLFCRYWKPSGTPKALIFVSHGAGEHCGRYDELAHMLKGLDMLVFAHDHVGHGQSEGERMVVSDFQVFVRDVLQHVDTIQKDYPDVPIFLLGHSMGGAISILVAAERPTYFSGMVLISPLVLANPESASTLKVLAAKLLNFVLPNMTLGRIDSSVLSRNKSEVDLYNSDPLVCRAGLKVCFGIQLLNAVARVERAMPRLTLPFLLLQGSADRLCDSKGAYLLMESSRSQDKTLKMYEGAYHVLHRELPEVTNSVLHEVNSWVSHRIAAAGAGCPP

SMILES	ABHD6 % Inh 5 mg/kg (mouse) [1]	inhibition at 1 µM [2] [%]	FAAH % Inh 5 mg/kg (mouse) [3]	MAGL % Inh 5 mg/kg (mouse) [4]	inhibition at 1 µM [5] [%]	inhibition at 1 µM [6] [%]	IC50 [7] [µM]
O=C(O)C1CCN(Cc2cc(Cl)cc(CN3CCCC34CCN(C(=O)OC(C(F)(F)F)C(F)(F)F)CC4)c2)C1 (stereo not shown) [Example 272]	# (# is <25%)	< 25	# (# is <25%)	### (### is ≥75%)	< 25	> 75	< 0.1
O=C(O)[C@H]1CCCCN1c1cc(CN2CCCC23CCN(C(=O)OC(C(F)(F)F)C(F)(F)F)CC3)cc(C(F)(F)F)c1 [Example 274]	# (# is <25%)	25 to 75	# (# is <25%)	### (### is ≥75%)	< 25	> 75	< 0.1
NC(=O)C1CCN(Cc2cc(C(F)(F)F)ccc2CN2CCCC23CCN(C(=O)OC(C(F)(F)F)C(F)(F)F)CC3)CC1 [Example 275]	# (# is <25%)	25 to 75	# (# is <25%)	### (### is ≥75%)	< 25	> 75	< 0.1
O=C(O)C1CCN(C(=O)c2cc(C(F)(F)F)ccc2CN2CCCC23CCN(C(=O)OC(C(F)(F)F)C(F)(F)F)CC3)CC1 [Example 281]	# (# is <25%)	25 to 75	# (# is <25%)	# (# is <25%)	< 25	> 75	< 0.1
